Consider 16 molecules from US6346535B1, “Fungicidal mixtures” (American Cyanamid Company, priority 1999, dated 2002).

Holding throughout (type): in vivo
Experiment [1] concerns Puccinia recondita on wheat. Description: Greenhouse trial, 4 day residual, Puccinia recondita on wheat. The following applies: for pest or weed control at 0.4 ppm / pest or weed control at 2 ppm / pest or weed control at 10 ppm / pest or weed control at 50 ppm / pest or weed control at 64 ppm / pest or weed control at 256 ppm / pest or weed control at 4 ppm / pest or weed control at 16 ppm: Puccinia recondita, 96 h, read-out: Observed Efficacy; for pest or weed control at 0.4 ppm / pest or weed control at 2 ppm / pest or weed control at 10 ppm / pest or weed control at 50 ppm: Table XV (Example 15), 4 day residual; for pest or weed control at 0.4 ppm: dose rate 0.4 ppm; for pest or weed control at 2 ppm: dose rate 2 ppm; for pest or weed control at 10 ppm: dose rate 10 ppm; for pest or weed control at 50 ppm: dose rate 50 ppm; for Observed Efficacy / pest or weed control at 64 ppm / pest or weed control at 256 ppm / pest or weed control at 4 ppm / pest or weed control at 16 ppm: compound alone. The source says:
(§1) The fungicides are applied in single treatments, or in a combination comprising a benzophenone of formula I and a compound selected from (A) through (E) as defined above. The compounds are applied in form of an aqueous spray mix obtained from a concentrated formulation or the technical material.
(§2) 1. Seed is planted in 6 cm diameter plastic pots and maintained in the greenhouse.
(§3) 2. When the primary leaf is fully expanded (in the case of cereals) or several leaves are present (in the case of dicots), formulated test compounds are sprayed with a three nozzle overhead fungicide sprayer to near run-off. Alternatively, a single nozzle overhead track sprayer is used for application of the compounds to cereals at a rate of 200 liters/ha (l/ha). Plants are then allowed to air-dry.
(§4) 3. Inoculation precedes treatment in the case of curative evaluations and follows treatment in case of residual evaluations. For inoculation of powdery mildew disease, plants are set up on greenhouse benches with bottom watering mats and inoculated by dusting them with conidia from infected plants. Between inoculation and treatment for curative evaluations and between treatment and inoculation for residual evaluations, plants are maintained in the greenhouse with bottom watering. For inoculation of non-powdery mildew diseases, an aqueous spore suspension of the pathogen is applied to the plant and the plants are kept 1-2 days in a moist infection chamber before being returned to the greenhouse where they are maintained by bottom watering.
(§5) 4. Disease on the foliage as percent leaf area with disease symptoms/signs is evaluated about 7 days after inoculation. In the case of wheat, the tips and bases of the leaves are excluded from the evaluation. [formula]
(§6) 1. Technical compounds are formulated in a solvent/surfactant system consisting of 5% acetone and 0.05% Tween 20 in deionized water. Compounds are dissolved in acetone prior to addition of the water; the Tween 20 can be added through either the acetone or the water. Dilutions are made using the solvent/surfactant system. Formulated compounds are prepared using deionized water.
(§7) Assessments of the diseases took place at the indicated day after the application of the compounds. Per cent infected leaf area infected was evaluated. The efficacy of the compounds/compounds mixtures to control the diseases was calculated by using the formula given above under item 4: […]
(§8) Synergy of a fungicide mixture was determined by comparing the actual (observed) fungicidal activity of the mixture to the expected fungicidal activity of the mixture as calculated using the COLBY formula given hereinabove.
Fungicidal Efficacy of the Mixture of BP-4+Other Fungicides (4 Day Residual) Against Puccinia recondita on Wheat
Fungicidal Efficacy of the Mixture of BP-4+Myclobutanil (4 Day Residual) Against Puccinia recondita on Wheat

The subject of experiment [2] is Erysiphe cichoracearum on cucumbers. Description: Greenhouse trial, 4 day residual, Erysiphe cichoracearum on cucumbers.
Description: as §1, §2, §3, §4, §5, §6, §7, §8

In experiment [3] the test system is Leptosphaeria nodorum on wheat. Description: Greenhouse trial, 4 day residual, Leptosphaeria nodorum on wheat. The following applies: for Observed Efficacy: Table VIII; for pest or weed control at 64 ppm / pest or weed control at 256 ppm / pest or weed control at 4 ppm / pest or weed control at 16 ppm: Parastagonospora nodorum, 96 h, read-out: Observed Efficacy.
Description: as §1, §2, §3, §4, §5, §6, §7, §8
Fungicidal Efficacy of the Mixture of BP-4+Other Fungicides (4 Day Residual) Against Leptosphaeria nodorum on Wheat

Where [4] appears, read: Golovinomyces cichoracearum, 96 h, Table XIV (Example 14), 4 day residual, dose rate 0.4 ppm, read-out: Observed Efficacy.
The mark [5] stands for this setting: Golovinomyces cichoracearum, 96 h, Table XIV (Example 14), 4 day residual, dose rate 2 ppm, read-out: Observed Efficacy.
The mark [6] stands for this setting: Golovinomyces cichoracearum, 96 h, Table XIV (Example 14), 4 day residual, dose rate 10 ppm, read-out: Observed Efficacy.
The mark [7] stands for this setting: Golovinomyces cichoracearum, 96 h, Table XIV (Example 14), 4 day residual, dose rate 50 ppm, read-out: Observed Efficacy.
[8] abbreviates: Golovinomyces cichoracearum, 96 h, Table XI, compound alone, dose rate 0.4 ppm, read-out: Observed Efficacy.
Setting [9] is: Golovinomyces cichoracearum, 96 h, Table XI, compound alone, dose rate 2 ppm, read-out: Observed Efficacy.
The mark [10] stands for this setting: Golovinomyces cichoracearum, 96 h, Table XI, compound alone, dose rate 10 ppm, read-out: Observed Efficacy.
The mark [11] stands for this setting: Golovinomyces cichoracearum, 96 h, Table XI, compound alone, dose rate 50 ppm, read-out: Observed Efficacy.
The mark [12] stands for this setting: Table VI, compound alone, dose rate 4 ppm.
[13] abbreviates: Table VI, compound alone, dose rate 16 ppm.
Where [14] appears, read: Table VI, compound alone, dose rate 64 ppm.
Setting [15] is: Table VI, compound alone, dose rate 256 ppm.
The mark [16] stands for this setting: compound alone, dose rate 4 ppm.
The mark [17] stands for this setting: compound alone, dose rate 16 ppm.
Where [18] appears, read: compound alone, dose rate 64 ppm.
Setting [19] is: compound alone, dose rate 256 ppm.
The mark [20] stands for this setting: Table X, compound alone, dose rate 64 ppm.
Setting [21] is: Table X, compound alone, dose rate 256 ppm.

Where two headings read alike, the source gives them in different places.

Consider `CCCC(Cn1cncn1)c1ccc(Cl)cc1Cl` (stereo not shown) [Penconazole], for which the values for the pest or weed control at 0.4 ppm in experiment [1] and in experiment [2] (setting [4]) were 0% and 6%, respectively. The pest or weed control at 2 ppm in experiment [1] was determined as 3%; in experiment [2] (setting [5]) it was 35%. The pest or weed control at 10 ppm came to 10% in experiment [1] and 37% in experiment [2] (setting [6]). The pest or weed control at 50 ppm in experiment [1] came to 26%; in experiment [2] (setting [7]), 67%.
In the case of `Fc1ccc([C@]2(Cn3cncn3)O[C@H]2c2ccccc2Cl)cc1` (racemic) [Epoxiconazole], the pest or weed control at 0.4 ppm in experiment [2] (setting [8]) was 0%. In addition, in experiment [2] (setting [9]), the pest or weed control at 2 ppm was 46%. In experiment [2] (setting [10]), the pest or weed control at 10 ppm stood at 68%. Further, the pest or weed control at 50 ppm in experiment [2] (setting [11]) is 77%.
With `CC(Oc1ccc(Cl)cc1Cl)C(=O)NC(C)(C#N)C(C)C` (stereo not shown) [AC 382042], the “Observed Efficacy” value in experiment [2] (Table XI, compound alone, dose rate 0.4 ppm) is recorded as 7%; in experiment [2] (Table XI, compound alone, dose rate 2 ppm) it was 3%; in experiment [2] (Table XI, compound alone, dose rate 10 ppm), 14%; in experiment [2] (Table XI, compound alone, dose rate 50 ppm) it was 25%.
As to Ethirimol, the “Observed Efficacy” value in experiment [1] (Table VII, dose rate 16 ppm) worked out at 0%; in experiment [1] (Table VII, dose rate 64 ppm), 0%; in experiment [1] (Table VII, dose rate 256 ppm), 0%; in experiment [2] (setting [12]), 50%; in experiment [2] (setting [13]), 83%; in experiment [2] (setting [14]) it was 94%. The “Observed Efficacy” value in experiment [2] (setting [15]) is recorded as 100%.
With Cyprodinil, the “Observed Efficacy” value in experiment [1] (Table VII, dose rate 4 ppm) amounted to 0%; in experiment [1] (Table VII, dose rate 16 ppm), 0%; in experiment [1] (Table VII, dose rate 64 ppm) it was 0%; in experiment [1] (Table VII, dose rate 256 ppm), 0%; in experiment [2] (setting [12]) it was 0%; in experiment [2] (setting [13]) it was 0%. Besides, the “Observed Efficacy” value is on record as 0% in experiment [2] (setting [14]); 15% in experiment [2] (setting [15]); 0% in experiment [3] (setting [16]); 75% in experiment [3] (setting [17]); 88% in experiment [3] (setting [18]); 93% in experiment [3] (setting [19]).
Regarding `COCC(=O)N(c1c(C)cccc1C)C(C)C(=O)OC` (stereo not shown) [Metalaxyl], the pest or weed control at 64 ppm in experiment [1] (Table IX, dose rate 64 ppm) was 0%. For the same molecule, in experiment [1] (Table IX, dose rate 256 ppm), the pest or weed control at 256 ppm worked out at 12%.
As for `O=C1C2CC=CCC2C(=O)N1SC(Cl)(Cl)Cl` (stereo not shown) [Captan], the pest or weed control at 4 ppm in experiment [1] (Table IX, dose rate 4 ppm) is 4%. Moreover, the pest or weed control at 16 ppm in experiment [1] (Table IX, dose rate 16 ppm) turned out to be 11%. Further, the pest or weed control at 64 ppm in experiment [1] (Table IX, dose rate 64 ppm) stood at 55%; in experiment [3] (setting [20]) it was 84%. For the same molecule, the pest or weed control at 256 ppm in experiment [1] (Table IX, dose rate 256 ppm) was 89%; in experiment [3] (setting [21]) it was 90%.
On to `CSC(=O)c1cccc2nnsc12` [BION, acibenzolar], for which the “Observed Efficacy” value is recorded as 0% in experiment [1] (Table VII, dose rate 4 ppm); 0% in experiment [1] (Table VII, dose rate 16 ppm); 0% in experiment [1] (Table VII, dose rate 64 ppm); 0% in experiment [1] (Table VII, dose rate 256 ppm); 0% in experiment [2] (setting [12]); 0% in experiment [2] (setting [13]). The “Observed Efficacy” value in experiment [2] (setting [14]) and in experiment [2] (setting [15]) was 0% each time.
For the molecule `CO/C=C(/C(=O)OC)c1ccccc1Oc1cc(Oc2ccccc2C#N)ncn1` [Azoxystrobin], the “Observed Efficacy” value in experiment [2] (setting [12]) turned out to be 78%; in experiment [2] (setting [13]), 96%; in experiment [2] (setting [14]) it was 100%; in experiment [2] (setting [15]), 100%; in experiment [3] (setting [16]), 84%; in experiment [3] (setting [17]), 97%. Further, the “Observed Efficacy” value in experiment [3] (setting [18]) and in experiment [3] (setting [19]) was 100% throughout.
For `CC(C)(C)C(O)C(Oc1ccc(Cl)cc1)n1cncn1` (stereo not shown) [Triadimenol], the pest or weed control at 0.4 ppm in experiment [1] and in experiment [2] (setting [4]) was 1% each time. Moreover, the pest or weed control at 2 ppm in experiment [1] and in experiment [2] (setting [5]) was 21% each time. Moreover, the pest or weed control at 10 ppm in experiment [1] came out at 69%; in experiment [2] (setting [6]), 45%. In addition, the pest or weed control at 50 ppm in experiment [1] amounted to 98%; in experiment [2] (setting [7]), 68%.
For the molecule `N#Cc1c[nH]cc1-c1cccc(Cl)c1Cl` [Fenpiclonil], the pest or weed control at 4 ppm in experiment [1] (Table IX, dose rate 4 ppm) was determined as 1%. Besides, the pest or weed control at 16 ppm in experiment [1] (Table IX, dose rate 16 ppm) is 0%. In experiment [1] (Table IX, dose rate 64 ppm), the pest or weed control at 64 ppm came out at 18%. In addition, the pest or weed control at 256 ppm in experiment [1] (Table IX, dose rate 256 ppm) turned out to be 58%.
On to `CCCCCCCCCCCCNC(=N)N` [Dodine], for which, in experiment [3], the pest or weed control at 4 ppm worked out at 0%, the pest or weed control at 16 ppm came to 6%, the pest or weed control at 64 ppm worked out at 24% and the pest or weed control at 256 ppm worked out at 59%.
With `O=[N+]([O-])c1cc(C(F)(F)F)c(Cl)c([N+](=O)[O-])c1Nc1ncc(C(F)(F)F)cc1Cl` [Fluazinam], in experiment [1] (Table IX, dose rate 4 ppm), the pest or weed control at 4 ppm is 0%. For the same molecule, the pest or weed control at 16 ppm in experiment [1] (Table IX, dose rate 16 ppm) was 6%. Also, the pest or weed control at 64 ppm was determined as 22% in experiment [1] (Table IX, dose rate 64 ppm) and 81% in experiment [3] (setting [20]). For the same molecule, the pest or weed control at 256 ppm is 80% in experiment [1] (Table IX, dose rate 256 ppm) and 91% in experiment [3] (setting [21]).
Turning to `C[C@@]1(c2ccc(Oc3ccccc3)cc2)OC(=O)N(Nc2ccccc2)C1=O` (racemic) [Famoxadone], the pest or weed control at 4 ppm in experiment [1] (Table IX, dose rate 4 ppm) was determined as 45%; in experiment [3] (Table X, compound alone, dose rate 4 ppm), 66%. The pest or weed control at 16 ppm was determined as 80% in experiment [1] (Table IX, dose rate 16 ppm) and 69% in experiment [3] (Table X, compound alone, dose rate 16 ppm). For the same molecule, the pest or weed control at 64 ppm in experiment [1] (Table IX, dose rate 64 ppm) came out at 92%; in experiment [3] (setting [20]), 80%. In experiment [3] (setting [21]), the pest or weed control at 256 ppm was 97%.
In the case of `CC(C)(C)C(O)(CCc1ccc(Cl)cc1)Cn1cncn1` (stereo not shown) [Tebuconazole], in experiment [2] (setting [8]), the pest or weed control at 0.4 ppm was 10%. In addition, the pest or weed control at 2 ppm in experiment [2] (setting [9]) was 45%. Besides, the pest or weed control at 10 ppm in experiment [2] (setting [10]) was 79%. In addition, the pest or weed control at 50 ppm in experiment [2] (setting [11]) came to 95%.
Consider `N#Cc1c(Cl)c(Cl)c(Cl)c(C#N)c1Cl` [Chlorothalonil], for which the pest or weed control at 4 ppm in experiment [1] (Table VII, dose rate 4 ppm) stood at 0%; in experiment [2] (Golovinomyces cichoracearum, 96 h, Table VI, compound alone, dose rate 4 ppm, read-out: Observed Efficacy), 0%. Also, the pest or weed control at 16 ppm in experiment [1] (Table VII, dose rate 16 ppm) was 0%; in experiment [2] (Golovinomyces cichoracearum, 96 h, Table VI, compound alone, dose rate 16 ppm, read-out: Observed Efficacy), 0%. Moreover, the pest or weed control at 64 ppm in experiment [1] (Table VII, dose rate 64 ppm) amounted to 0%; in experiment [2] (Golovinomyces cichoracearum, 96 h, Table VI, compound alone, dose rate 64 ppm, read-out: Observed Efficacy), 0%. For the same molecule, the pest or weed control at 256 ppm was 31% in experiment [1] (Table VII, dose rate 256 ppm) and 1% in experiment [2] (Golovinomyces cichoracearum, 96 h, Table VI, compound alone, dose rate 256 ppm, read-out: Observed Efficacy).
